Calls of active or inactive are those of the source.
How the values were obtained:
[1] = TNFa-induced NF-kB reporter signal decrease – HEK293 LMP1 reporter cells, dry powder, set 2, selectivity assay for EBV LMP1 NF-kB inhibitor project, dose response (AID 624369); type: functional
[2] = LMP1-induced NF-kB luciferase signal inhibition – cell-based, EBV LMP1, dry powder, set 2, dose response (AID 624361); type: functional
HeLa = assay: viability loss in HeLa cells – cell-based, ATP luminescence, cherry-pick samples, cytotoxicity control, dose response (AID 687004); type: functional; conditions: Homo sapiens
HEK293 = assay: viability loss in HEK293T cells – cell-based, ATP luminescence, cherry-pick samples, cytotoxicity control, dose response (AID 687005); type: functional; conditions: Homo sapiens;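 further: cells exposed to compound for 48 hours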
[3] = HEK293 Cytotoxicity Assay Measured in Cell-Based System Using Plate Reader - 7071-01_Inhibitor_Dose_CherryPick_Activity_Set2.; type: functional
A549 = assay: viability loss in A549 cells – cell-based, plate reader, cherry-pick samples, cytotoxicity control, dose response (AID 687028); type: functional; conditions: Homo sapiens
[4] = IGROV1 cell killing – plate reader, dry powder samples, PAX8 inhibitor project, dose response (AID 743043); type: functional, cell-based; conditions: IGROV-1
[5] = OVCAR-3 cell viability loss – plate reader, dry powder samples, PAX8 inhibitor project, dose response (AID 743044); type: functional, cell-based
[6] = reduced cellular PGC1a acetyl-lysine signal – cell-based, cherry-picked samples, dose response (AID 720514); type: functional;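 further: potency may reflect raised or lowered acetylation signal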
[7] = P. falciparum Dd2 growth inhibitors, dose response, SYBR Green, cherry-picked samples (AID 1159567); type: functional, cell-based
[8] = OVCAR8 cell viability loss – plate reader, dry powder samples, PAX8 project, dose response (AID 743197); type: functional, cell-based; conditions: OVCAR-8
[9] = general cell-killing toxicity readout – plate reader, dry powder samples, cytotoxicity control for PAX8 inhibitor project, dose response (AID 743021); type: functional, cell-based
[10] = toxicity toward immortalized ovarian surface epithelium – cell-based, plate reader, dry powder samples, cytotoxicity control for PAX8 inhibitor project, dose response (AID 743045); type: functional
[11] = toxicity to human hepatoma HepG2 cells – cell-based, cherry-picked samples, cytotoxicity control, dose response (AID 1159577); type: functional
Paired box protein Pax-8 = Paired box protein Pax-8 (Homo sapiens, UniProt Q06710); assay: PAX8 transcriptional activity inhibition in RMG-I – RMG-I cells, luciferase, cherry-pick, dose response (AID 687027); type: functional, cell-based;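 further: luciferase reporter driven by Pax8 target thyroperoxidase promoter measured by SteadyGlo luminescence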
[12] = Counterscreen for inhibitors of Trypanosoma brucei methionyl tRNA synthetase (MetRS): Luminescence-based cell-based high throughput dose response assay to identify compounds that are cytotoxic to Jurkat human T lymphocyte cells.; type: functional
[13] = molecular target: T1, Methionyl-tRNA synthetase, putative (Trypanosoma brucei brucei, UniProt Q38C91); type: functional, Trypanosoma brucei brucei strain 927/4 GUTat10.1
T1 sequence (Q38C91 whole entry): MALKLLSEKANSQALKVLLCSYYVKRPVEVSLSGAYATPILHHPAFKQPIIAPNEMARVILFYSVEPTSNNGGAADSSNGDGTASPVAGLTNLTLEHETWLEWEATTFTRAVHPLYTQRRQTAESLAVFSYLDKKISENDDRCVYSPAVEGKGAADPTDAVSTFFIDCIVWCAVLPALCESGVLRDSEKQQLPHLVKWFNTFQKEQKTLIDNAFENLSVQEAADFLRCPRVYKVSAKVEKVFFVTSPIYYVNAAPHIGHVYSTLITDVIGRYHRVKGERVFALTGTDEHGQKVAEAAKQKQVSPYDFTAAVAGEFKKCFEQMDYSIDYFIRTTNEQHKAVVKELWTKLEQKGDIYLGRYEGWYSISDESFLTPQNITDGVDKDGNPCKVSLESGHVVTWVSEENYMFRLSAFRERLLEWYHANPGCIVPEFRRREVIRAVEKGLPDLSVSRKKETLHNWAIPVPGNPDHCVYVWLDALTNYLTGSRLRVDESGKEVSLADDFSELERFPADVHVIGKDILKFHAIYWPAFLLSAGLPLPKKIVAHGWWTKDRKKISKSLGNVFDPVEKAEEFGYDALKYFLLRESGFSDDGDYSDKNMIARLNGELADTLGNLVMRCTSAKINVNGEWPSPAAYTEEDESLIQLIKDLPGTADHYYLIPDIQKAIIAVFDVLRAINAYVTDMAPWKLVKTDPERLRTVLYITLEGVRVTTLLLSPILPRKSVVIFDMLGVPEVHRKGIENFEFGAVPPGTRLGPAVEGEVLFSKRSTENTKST

[14] = molecular target: T1, Methionyl-tRNA synthetase, putative; type: functional, Trypanosoma brucei brucei strain 927/4 GUTat10.1; remark: listed apart in the source
[15] = Late stage counterscreen for inhibitors of Trypanosoma brucei methionyl tRNA synthetase (MetRS): Luminescence-based cell-based high throughput dose response assay to identify compounds that are cytotoxic to Jurkat human T lymphocyte cells.; type: functional
[16] = viability loss in human hepatoma cells – cell-based, CellTiter-Glo luminescence, cherry-pick, set 2, cytotoxicity control, dose response (AID 743395); type: functional
Major prion protein = Major prion protein (Homo sapiens, UniProt P04156); type: functional, cell-based
[17] = viability loss in HepG2 hepatoma cells – cell-based, cherry-picks, set 5, cytotoxicity control, dose response (AID 1053118); type: functional

## Cc1cc(C(=O)Nc2ccc3c(c2)C(=O)N(C)[C@H]2CC[C@H](CC(=O)NCc4ccc(-c5ccccc5)cc4)O[C@H]2CO3)no1
[1]
  AbsAC35: 62.14 µM
[2]
  AbsAC35: 37.95 µM

## C[C@@H]1CN([C@@H](C)CO)S(=O)(=O)c2ccc(-c3ccccc3)cc2O[C@H]1CN(C)C(=O)C1CCCCC1
HeLa
  AC50: > 52 µM (inactive)
HEK293
  AC50: 15.4 µM (active)
[3]
  AC50: 15.4 µM (active)

## C[C@H](CO)N1C[C@H](C)[C@@H](CN(C)C(=O)Nc2ccc(C(F)(F)F)cc2)OCCCC[C@H](C)Oc2ccc(NC(=O)C3CCCCC3)cc2C1=O
A549
  AC50: 30.5 µM (active)

## Cc1cccc(-c2ccc([C@H]3[C@@H]4CN(C(=O)Nc5ccc(C(F)(F)F)cc5)C[C@H]3N4)cc2)c1
[4]
  AC50: 33.2 µM (active)
[5]
  AC50: 18.8 µM (active)
[6]
  AC50: 4.51 µM (active)
[7]
  AC50: 3.28 µM (active)
[8]
  AC50: 25.6 µM (active)
[9]
  AC50: 22.9 µM (active)
[10]
  AC50: 17 µM (active)
[11]
  AC50: 9.26 µM (active)
Paired box protein Pax-8
  AC50: 8.8 µM (active)

## O=C(NCc1nc2ccccc2[nH]1)C1=C[C@@H](c2ccccc2)C[C@@H](OCc2ccc(CO)cc2)O1
[12]
  IC50: 81 µM (inactive)
[13]
  IC50: 0.835 µM (active)
[14]
  IC50: 2.08 µM (active)
[15]
  IC50: > 83.3 µM (inactive)

## COc1cc(NC(=O)c2csc(N)n2)cc(C(=O)Nc2cccc(C(F)(F)F)c2)c1.O=C(O)C(F)(F)F
[16]
  AbsAC35_uM: 51.31 µM

## Fc1cccc2sc(Nc3nc4c(F)cccc4s3)nc12
Major prion protein
  IC50: 8.31 µM (active)
cells
  IC50: > 138 µM (inactive)

## CO[C@@H]1CN(C)C(=O)c2ccc(NC(=O)c3ccc(-c4ccccc4)cc3)cc2OC[C@@H](C)NC[C@@H]1C
[17]
  AC50: > 52 µM (inactive)
[7]
  AC50: 3.9 µM (active)
[11]
  AC50: 11.9 µM (active)

Reference: ChEMBL document CHEMBL1201862, “PubChem BioAssay data set” (2004)
